Assay [1] concerns patient with lower back and leg pain and emotional pain due to separation from a child. The assay is described as follows: Example 12 case study, patient diary.
Assay [2] concerns patient with chronic migraines, lower back pain and anger with spouse. As to the kind of experiment: Example 9 case study. The format is in vivo, human. As to conditions: naltrexone 5 mg twice daily for 14 months. From the text: For 30 years they and their retired spouse were always together.
Assay [3] relates to patient with post herpetic neuralgia, chronic lower back pain and anger with spouse. The assay is described as follows: Example 8 case study. In kind it is in vivo, human. As to conditions: naltrexone 5 mg/clonidine 0.025 mg twice daily; naltrexone 5 mg twice daily; naltrexone 2.25 mg and acetaminophen 325 mg four times daily.
Setting [4] is: Ibuprofen 800 mg T.I.D. PRN 2006-2010, Naltrexone 2.25 mg Q.I.D./Clonidine 0.025 mg Q.I.D. 2010-2015, APAP 325 mg Q.I.D. Jun. 29-Jul. 6, 2015, Naltrexone 2.5 mg Q.I.D. to Jul. 8, 2015, Naltrexone 2.25 mg/APAP 325 mg Q.I.D. Jul. 9-Oct. 4, 2015.

For the molecule `O=C1CC[C@@]2(O)[C@H]3Cc4ccc(O)c5c4[C@@]2(CCN3CC2CC2)[C@H]1O5` [naltrexone], in assay [1] (setting [4]), the “API, average pain intensity (0-10 NRS)” value amounted to 4; the “Insomnia (0-10 NRS)” value came out at 6.5; the “PRSI, Pain Related Sleep Interference (0-10 NRS)” value stood at 5.5; the “WEP, Worst Emotional Pain (0-10 NRS)” value is recorded as 5.5. The “WPI, Worst Pain Intensity (0-10 NRS)” value in assay [1] (setting [4]) worked out at 5. The “PGIC (1-7 Likert)” value in assay [1] (Naltrexone 2.25 mg Q.I.D./Clonidine 0.025 mg Q.I.D. 2010-2015, APAP 325 mg Q.I.D. Jun. 29-Jul. 6, 2015, Naltrexone 2.5 mg Q.I.D. to Jul. 8, 2015, Naltrexone 2.25 mg/APAP 325 mg Q.I.D. Jul. 9-Oct. 4, 2015) turned out to be 6. Also, in assay [1] (naltrexone/clonidine, acetaminophen 325 mg four times daily 5 days, naltrexone alone 12 days, naltrexone 2.25 mg and acetaminophen 325 mg four times daily almost three months), the “emotional pain due to separation from child (patient report)” value was “same level of emotional pain”. Also, in assay [2], the “lower back pain diminished by” value was found to be 90%; the “migraine intensity and frequency lessened by” value amounted to 90%. Also, the “mean average pain intensity” value in assay [3] was 1.5 /10.

The values above are taken from patent US11058680B2, “Combinations of opioid/TLR4 antagonists and acetaminophen for use in the treatment of emotional pain and insomnia” (Allodynic Threapeutics, LLC, priority 2016, dated 2021).
